The source of these data is ChEMBL document CHEMBL5625225, “Vinylphosphonate-based cyclic dinucleotides enhance STING-mediated cancer immunotherapy” (Eur J Med Chem, 2023).

In general, EC50 refers to the concentration needed to bring the measured effect to its halfway point. A higher EC50 goes with a less potent agent.

The target of test [1] is T1, Stimulator of interferon genes protein (Homo sapiens, UniProt Q86WV6). The test can be described thus: Agonist activity at wild type STING (unknown origin) expressed in HEK293T cells preincubated for 30 mins followed by washout and measured after 6.5 hrs by Bright-glo luciferase assay. Type of test: cell-based.
T1 sequence (Q86WV6 whole entry): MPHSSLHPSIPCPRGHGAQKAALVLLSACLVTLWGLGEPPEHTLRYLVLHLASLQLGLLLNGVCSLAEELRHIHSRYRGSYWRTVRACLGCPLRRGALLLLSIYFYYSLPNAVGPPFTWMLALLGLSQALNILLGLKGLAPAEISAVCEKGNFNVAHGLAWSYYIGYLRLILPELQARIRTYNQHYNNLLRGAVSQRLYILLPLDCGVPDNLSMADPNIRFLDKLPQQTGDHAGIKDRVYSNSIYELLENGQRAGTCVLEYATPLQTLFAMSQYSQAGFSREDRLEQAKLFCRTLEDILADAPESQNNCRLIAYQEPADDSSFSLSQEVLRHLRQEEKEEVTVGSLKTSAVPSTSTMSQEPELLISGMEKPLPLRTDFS
For test [2], the target named is T1, Stimulator of interferon genes protein. Nature of the test: Agonist activity at wild type STING (unknown origin) expressed in HEK293T cells measured after 7 hrs by Bright-glo luciferase assay. Type of test: cell-based.

Turning to `CCC(C)(C)C(=O)OCOP1(=O)/C=C/[C@H]2O[C@@H](n3cnc4c(N)ncnc43)[C@H](F)[C@@H]2OP(=O)(OCOC(=O)C(C)(C)CC)OC[C@H]2O[C@@H](n3cnc4c(N)ncnc43)[C@H](F)[C@@H]2O1` (stereo in doubt; 13B), the EC50 turned out to be 35 nM in test [1] and 14 nM in test [2].
Consider `CC(C)(C)C(=O)OCOP1(=O)/C=C/[C@H]2O[C@@H](n3cnc4c(N)ncnc43)C[C@@H]2OP(=O)(OCOC(=O)C(C)(C)C)OC[C@H]2O[C@@H](n3cnc4c(N)ncnc43)[C@H](F)[C@@H]2O1` (stereo in doubt; 24B), for which the concentration for a half-maximal effect (EC50) stood at 550 nM in test [1] and 675 nM in test [2].
For the molecule `CC(C)(C)C(=O)OCOP1(=O)/C=C/[C@H]2O[C@@H](n3cnc4c(N)ncnc43)C[C@@H]2OP(=O)(OCOC(=O)C(C)(C)C)OC[C@H]2O[C@@H](n3cnc4c(N)ncnc43)[C@H](F)[C@@H]2O1` (stereo in doubt; 24C), the EC50 is 210 nM in test [1] and 260 nM in test [2].
Taken in the same sequence, the figures for `CC(C)(C)C(=O)OCOP1(=O)/C=C/[C@H]2O[C@@H](n3cnc4c(N)ncnc43)[C@H](F)[C@@H]2OP(=O)(OCOC(=O)C(C)(C)C)OC[C@H]2O[C@@H](n3cnc4c(N)ncnc43)[C@H](F)[C@@H]2O1` (stereo in doubt; 11A) were 130 nM and 60 nM.
Taken in the same sequence, the figures for `CC(C)(C)C(=O)OCOP1(=O)/C=C/[C@H]2O[C@@H](n3cnc4c(N)ncnc43)C[C@@H]2OP(=O)(OCOC(=O)C(C)(C)C)OC[C@H]2O[C@@H](n3cnc4c(N)ncnc43)[C@H](F)[C@@H]2O1` (stereo in doubt; 24A) were 9930 nM and 12100 nM.
Taken in the same sequence, the figures for `CCC(C)(C)C(=O)OCOP1(=O)/C=C/[C@H]2O[C@@H](n3cnc4c(N)ncnc43)[C@H](F)[C@@H]2OP(=O)(OCOC(=O)C(C)(C)CC)OC[C@H]2O[C@@H](n3cnc4c(N)ncnc43)[C@H](F)[C@@H]2O1` (stereo in doubt; 13A) were 450 nM and 150 nM.
Regarding `CC(C)OC(=O)OCOP1(=O)/C=C/[C@H]2O[C@@H](n3cnc4c(N)ncnc43)[C@H](F)[C@@H]2OP(=O)(OCOC(=O)OC(C)C)OC[C@H]2O[C@@H](n3cnc4c(N)ncnc43)[C@H](F)[C@@H]2O1` (stereo in doubt; 12A), the 50% effective concentration (EC50) is 7950 nM in test [1] and 9500 nM in test [2].
Taken in the same sequence, the figures for `CC1(C(=O)OCOP2(=O)/C=C/[C@H]3O[C@@H](n4cnc5c(N)ncnc54)[C@H](F)[C@@H]3OP(=O)(OCOC(=O)C3(C)CCCCC3)OC[C@H]3O[C@@H](n4cnc5c(N)ncnc54)[C@H](F)[C@@H]3O2)CCCCC1` (stereo in doubt; 14A) were 500 nM and 250 nM.
Taken in the same sequence, the figures for `CC(C)OC(=O)OCOP1(=O)/C=C/[C@H]2O[C@@H](n3cnc4c(N)ncnc43)[C@H](F)[C@@H]2OP(=O)(OCOC(=O)OC(C)C)OC[C@H]2O[C@@H](n3cnc4c(N)ncnc43)[C@H](F)[C@@H]2O1` (stereo in doubt; 12B) were 2630 nM and 1250 nM.
In the case of `CCCCCCCC(=O)OCOP1(=O)/C=C/[C@H]2O[C@@H](n3cnc4c(N)ncnc43)[C@H](F)[C@@H]2OP(=O)(OCOC(=O)CCCCCCC)OC[C@H]2O[C@@H](n3cnc4c(N)ncnc43)[C@H](F)[C@@H]2O1` (stereo in doubt; 15A), the EC50 amounted to 350 nM in test [1] and 20 nM in test [2].
